Data taken from US9856210B2, “Pharmaceutical composition for prevention and treatment of amyotrophic lateral sclerosis” (Kyoto University, priority 2010, dated 2018).

What was measured:
[1] = tested on: SOD1; assay: Western blotting of intracellular SOD1 in iPS cell-derived astrocytes; format: cell-based, human; conditions: astrocytes from ALS patient iPS cells; 1 μM, 3 μM, 10 μM and 30 μM; 48 hours; β-actin internal standard (FIG. 3D)
Description: A 4-mm skin biopsy was cultured for 3 weeks, and the resulting cells in culture were used as the fibroblasts derived from an ALS patient.
Human cDNAs for KLF4, Sox2, Oct3/4 and c-Myc were transferred to the above-described fibroblasts using a retrovirus, as described by Takahashi K et al. in Cell 131(5), 861, 2007. On day 6 after the gene transfer, the fibroblasts were transferred onto SNL feeder cells. The following day, the medium was replaced with a primate ES cell culture broth supplemented with 4 ng/ml of bFGF (Wako). The medium was exchanged every two days; 30 days after the gene transfer, colonies were picked up.
Neurospheres were formed by a slightly modified version of the method described by Wada T et al. in PLoS ONE 4(8), e6722, 2009. […]
The iPS cell-derived astrocytes were seeded to a 6-well plate at a density of 250,000 cells/well. […] After the incubation, the amount expressed was detected by ECL (Enhanced ChemiLuminescence) using an HRP-linked anti-rabbit IgG antibody (1:5000; GE healthcare) and an HRP-linked anti-mouse IgG antibody (1:5000; GE healthcare).

[2] = tested on: mouse SOD1 (mSOD1) mRNA; assay: Mouse SOD1 mRNA in spinal cord of human SOD1 (G93A) transgenic mice (PCR); format: in vivo; conditions: 60 mg/kg/day oral, 5 days a week for 4 weeks, vs solvent control; relative to β-actin (FIG. 4)
Description: (§1) To 8-week-old human SOD1 (G93A) transgenic mice (The Jackson Laboratory) were orally administered sorafenib (60 mg/kg/day) dissolved in 95% ethanol and Cremophol EL or solvent alone as a control, each to 3 mice, 5 days a week for 4 weeks. After administration, the spinal cord was removed. Total RNA was extracted and human and mouse SOD1 mRNA amounts were measured by PCR.

[3] = tested on: human SOD1 (hSOD1) mRNA; assay: Human SOD1 mRNA in spinal cord of human SOD1 (G93A) transgenic mice (PCR); format: in vivo, mouse; conditions: 60 mg/kg/day oral, 5 days a week for 4 weeks, vs solvent control; relative to β-actin (FIG. 4)
Description: as §1

CNC(=O)c1cc(Oc2ccc(NC(=O)Nc3ccc(Cl)c(C(F)(F)F)c3)cc2)ccn1 [sorafenib]
expression of SOD1 (western blotting) [1]: a reduction in the expression of SOD1 was observed
mouse SOD1 mRNA amount in spinal cord [2]: significantly decreased
human SOD1 mRNA amount in spinal cord [3]: significantly decreased
